Data taken from US11209420B2, “Cancer diagnostics, therapeutics, and drug discovery associated with macropinocytosis” (New York University, priority 2011, dated 2021).

Experiments:
MIA-Paca-2 cells [1] = experiment: TMR-dextran labeling of macropinosomes; type: cell-based, human; conditions: MIA-Paca-2, oncogenic K-Ras^G12C
Protocol: (§1) It was postulated that cancer cells harboring oncogenic Ras mutations would display higher levels of macropinocytosis compared to cancer cells having a non-mutant Ras. For pancreatic cancer cells, macropinocytosis was analyzed in MIA-Paca-2 cells, which are homozygous for the oncogenic K-Ras^G12C allele (Lopez-Crapez et al., “Rapid and Large-Scale Method to Detect K-Ras Gene Mutations in Tumor Samples,” Clin. Chem. 43(6 Pt 1):936-42 (1997) and Pretlow et al., “K-Ras Mutations in Putative Preneoplastic Lesions in Human Colon,” J. Natl. Cancer Inst. 85(24):2004-7 (1993), which are hereby incorporated by reference in their entirety) and BxPc-3 cells that only express wild-type K-Ras (Aoki et al., “Liposome-Mediated in vivo Gene Transfer of Antisense K-Ras Construct Inhibits Pancreatic Tumor Dissemination in the Murine Peritoneal Cavity,” Cancer Res. 55(17):3810-6 (1995), which is hereby incorporated by reference in its entirety). As a bladder model, uptake in T24 and 5637 cells was analyzed. T24 cells are homozygous for the oncogenic H-Ras^V12C allele and 5637 cells only express wild-type H-Ras. […]

[2] = cited from earlier work
T24 cells [3] = experiment: TMR-dextran labeling of macropinosomes; type: cell-based; conditions: T24, oncogenic H-Ras
Protocol: as §1

[4] = tested on: oncogenic Ras-transformed cells; experiment: Proliferation in low glutamine with physiological albumin; type: cell-based; conditions: 0.2 mM glutamine, rescued by increased glutamine or α-ketoglutarate
[5] = tested on: NIH 3T3 [K-Ras^G12V] cells; experiment: Intracellular glutamate and α-ketoglutarate levels after albumin supplementation; type: cell-based, murine; conditions: complete medium + 2% albumin, 24 hours
Protocol: Glutamine is a major nutrient for many proliferating cells and is rapidly metabolized to glutamate, then α-ketoglutarate to enter central carbon metabolism. To test whether the favorable effects of albumin supplementation on cell growth were related to glutamine metabolism, the intracellular concentrations of glutamate and α-ketoglutarate in cells grown either in the absence or presence of albumin was measured. NIH 3T3 [K-Ras^G12V] cells were cultured for 24 hours in complete media (CM) supplemented to physiological concentrations of albumin (2 g/100 mL, 2%). As a control, NIH 3T3 [K-Ras^G12V] cells were also cultured in CM alone, which contains minimal levels of albumin (˜0.2%). Cells were lysed and metabolite levels were determined from deproteinized cell lysates. The addition of albumin to the media led to significant increases in intracellular concentrations of both glutamate and α-ketoglutarate (FIG. 20A).

MIA-Paca-2 cells [6] = experiment: FITC-BSA internalization; type: cell-based, human
Protocol: (§2) When added to the growth medium, fluorescently-labeled bovine serum albumin (FITC-BSA) was incorporated into vesicular compartments in oncogenic Ras^V12-expressing HeLa cells (FIG. 6A), MIA-Paca-2, and T24 cells. […] Quantification of FITC-BSA uptake was performed utilizing an amended form of the high-throughput protocol described herein (FIG. 6B). Using colocalization experiments, it was observed that FITC-BSA is internalized with a macropinocytosis marker, dextran (FIG. 7A-7C). To be utilized as a nutrient source, the protein contents of Ras-stimulated macropinosomes must be delivered to a degradative compartment, such as the lysosome. The fate of the macropinosomes was followed via pulse chase experiments and their fusion with lysosomes was monitored by co-staining with lysosomal markers (i.e. Lysotracker). Cells were pulsed with TMR-dextran and incubated with TMR-dextran-free media for varying intervals. At the end of the incubation period, cells were stained with a lysosomal marker and visualized by fluorescent microscopy.

[7] = tested on: oncogenic Ras^V12-expressing HeLa cells; experiment: FITC-BSA internalization; type: cell-based, human
Protocol: as §2

[8] = tested on: K-Ras^V12-transformed NIH3T3 cells; experiment: High-throughput macropinocytosis assay, amended protocol; type: cell-based, murine; conditions: high-throughput quantification
Source text: To explore the flexibility of the high-throughput compatible macropinocytosis assay, the HeLa-based Spot Detector BioApplication parameters were amended to quantify macropinocytosis in K-Ras^V12-expressing NIH3T3 cells. To do this, object identification parameters were altered to accommodate larger nuclei and the spot identification target region was adjusted accordingly. Untransformed NIH3T3 cells display low levels of macropinocytosis, compared to K-Ras^V12-transformed cells. Using this amended protocol, it was possible to quantify fluid-phase uptake in these cells and determine that K-Ras^V12-expressing cells have a 3-4 fold increase in macropinocytosis (FIGS. 2A-2B). To examine the effects of macropinocytosis inhibitors, K-Ras^V12-transformed NIH3T3 cells were treated with increasing concentrations of LY294002 or EIPA.

T24 cells [9] = experiment: FITC-BSA internalization; type: cell-based
Protocol: as §2

[10] = tested on: oncogenic Ras^V12-expressing HeLa cells; experiment: Survival under glutamine starvation with extracellular albumin; type: cell-based, human; conditions: glutamine-free media, low BSA or 2% BSA
Protocol: If albumin internalization via Ras-stimulated macropinocytosis serves to augment the glutamine supply, then this process should confer a survival and growth advantage under conditions where free glutamine is limiting. To test this prediction, the survival of oncogenic Ras^V12-expressing HeLa cells was tested. […] It was hypothesized that this was due to albumin-derived amino acids that were augmenting the intracellular glutamine supply. It was determined that Ras^V12-survival was enhanced at higher concentrations of extracellular albumin (up to 2%; FIG. 13) and that this survival enhancement was suppressed by EIPA, a macropinocytosis inhibitor (FIGS. 14A-14B).

macropinocytosis = conditions: cited from earlier work
[11] = tested on: HeLa cells expressing HA-H-Ras^V12; experiment: High-throughput macropinocytosis assay (TMR-dextran uptake, Arrayscan spot detection); type: cell-based, human; conditions: 30 min pre-incubation in serum-free media, then TMR-dextran 30 min; dose-response
Source text: To analyze and quantify Ras-stimulated macropinocytosis, a high content screening (HCS)-compatible platform designed for rapid spot analysis was desired. One such platform is the Arrayscan HCS Reader (Cellomics) in conjunction with the Spot Detector BioApplication (Cellomics), which is designed to provide fluorescent- and image-based generic spot analysis for multiple biological applications. As a model cell-based system, a HeLa Tet-Off (HTO) cell line (Clontech) stably transfected with a tetracycline-repressible transgene encoding an oncogenic form of hemagglutinin (HA)-tagged H-Ras (H-Ras^V12) was used. In brief, 2000 cells per well were plated in 384-well plate format in a total volume of 50 μL. To induce expression of H-Ras^V12, cells were plated in media lacking tetracycline, while control cells were plated in 50 ng/mL tetracycline. […] Macropinosomes were analyzed on a cell-to-cell basis using multichannel analysis on the Arrayscan HCS Reader (FIG. 21A). […] A circular spot identification target region (or mask) was then applied for each object on Channel 2, and spots were detected based on their fluorescent intensity, size, and shape. […] To quantify this, the output feature selected for Channel 2 was Spot Count Per Object, which is effectively a measure of total number amount of fluorescent extracellular fluid internalized per cell in a given incubation time. […]

Compound	TMR-dextran labeling (macropinocytosis) (MIA-Paca-2 cells [1])	solubility in cell culture media [2]	TMR-dextran labeling (macropinocytosis) (T24 cells [3])	effect on proliferation [4]	albumin-dependent increase in intracellular α-ketoglutarate ([5]; 25 mM EIPA)	albumin-dependent increase in intracellular glutamate ([5]; EIPA)	FITC-BSA internalization (MIA-Paca-2 cells [6])	FITC-BSA internalization [7]	effect on macropinocytosis with increasing concentrations [8]	FITC-BSA internalization (T24 cells [9])	survival enhancement by extracellular albumin [10]	concentrations at which it exerts its effects on macropinocytosis (macropinocytosis)	concentration at which maximal inhibition of macropinocytosis occurs [11]
CCN(c1nc(N)c(C(=O)N=C(N)N)nc1Cl)C(C)C [EIPA, 5-N-ethyl-N-isoproamiloride]	inhibited	soluble in cell culture media	inhibited	anti-proliferative response	blocked	blocked	inhibited	inhibited	dose-response relationship	inhibited	suppressed	50 to 100 µM	100 µM
O=c1cc(N2CCOCC2)oc2c(-c3ccccc3)cccc12 [LY294002, 2-(4-morpholinyl)-8-phenyl-4H-1-benzopyran-4]													100 µM
N=C(N)NC(=O)c1nc(Cl)c(N)nc1N [amiloride]												1000 to 5000 µM	
